In the NIST ThermoML archive (doi:10.1021/acs.jced.6b00221):

Columns and labels:
[1] = Liquid, Ebulliometric method (Recirculating still)
[2] = Boiling temperature at pressure P; settings: Liquid, Ebulliometric method (Recirculating still)

CC(=O)OCC(C)C [2-methylpropyl ethanoate]
Settings | Boiling temperature at pressure P [°C] | vapor or sublimation pressure [kPa]
[1], 367.51 K | – | 50
[1], 388.93 K | – | 100
[1], 389.37 K | – | 100
[1], 403.22 K | – | 150
[1], 403.64 K | – | 150
[2], 39.99 kPa | 88 | –
[2], 49.98 kPa | 94.26 | –
[2], 59.99 kPa | 99.74 | –
[2], 70 kPa | 104.24 | –
[2], 80 kPa | 108.43 | –
[2], 90 kPa | 112.39 | –
[2], 100 kPa | 116.22 | –
[2], 110 kPa | 119.20 | –
[2], 120 kPa | 122.11 | –
[2], 130 kPa | 125.01 | –
[2], 140 kPa | 127.69 | –
[2], 150 kPa | 130.49 | –

CC(=O)OCCC(C)C [3-methylbutyl ethanoate]
Settings | Boiling temperature at pressure P [°C] | vapor or sublimation pressure [kPa]
[1], 413.99 K | – | 100
[2], 20 kPa | 92.14 | –
[2], 29.98 kPa | 102.91 | –
[2], 40.01 kPa | 111.16 | –
[2], 49.99 kPa | 117.92 | –
[2], 60 kPa | 123.61 | –
[2], 70 kPa | 128.57 | –
[2], 80.01 kPa | 133.03 | –
[2], 90 kPa | 137.09 | –
[2], 100.01 kPa | 140.8 | –
[2], 110 kPa | 144.00 | –
[2], 119.99 kPa | 147.28 | –
[2], 130 kPa | 150.31 | –
[2], 139.99 kPa | 153.18 | –
[2], 149.99 kPa | 155.90 | –
[2], 160.01 kPa | 158.46 | –

CCOC(C)=O [ethyl acetate]
Settings | Boiling temperature at pressure P [°C] | vapor or sublimation pressure [kPa]
[1], 330.41 K | – | 50
[1], 349.7 K | – | 100
[1], 362.48 K | – | 150
[2], 54.99 kPa | 59.67 | –
[2], 59.98 kPa | 62.01 | –
[2], 70 kPa | 66.27 | –
[2], 75 kPa | 67.77 | –
[2], 80 kPa | 70.03 | –
[2], 84.99 kPa | 71.78 | –
[2], 89.91 kPa | 73.43 | –
[2], 95.01 kPa | 75.1 | –
[2], 101.33 kPa | 77.01 | –
[2], 104.99 kPa | 78.11 | –
[2], 109.98 kPa | 79.52 | –
[2], 119.9 kPa | 82.21 | –
[2], 124.98 kPa | 83.47 | –
[2], 129.93 kPa | 84.71 | –
[2], 134.95 kPa | 85.93 | –
[2], 139.96 kPa | 87.09 | –
[2], 149.95 kPa | 89.33 | –
[2], 154.97 kPa | 90.41 | –
[2], 159.96 kPa | 91.5 | –
[2], 164.99 kPa | 92.49 | –
[2], 174.99 kPa | 94.46 | –
[2], 180 kPa | 95.43 | –
[2], 185 kPa | 96.4 | –
